In patent US20070185020A1, “Methods and compositions for treating disorders of the extracellular matrix” (priority 2003, published 2007):

How the values were obtained:
CDA1 [1] = assay: CDA1 expression in kidney after angiotensin II infusion (immunohistochemistry); format: in vivo, rat
Procedure: Ang II was continuously infused into rats by subcutaneously inserted minipump for 3 days or 14 days at both pressor (60 ng/min) and non-pressor doses (6 ng/min) in eight week old male Sprague Dawley (SD) rats (Cao et al Z; The angiotensin type 2 receptor is expressed in adult rat kidney and promotes cellular proliferation and apoptosis. Kidney int. 2000; 58:2437-2451).
CDA1 staining was performed using a rabbit antihuman CDA1 serum (Chai et al, 2001) in paraffin embedded sections. In brief, following dewaxing, paraffin embedded sections were treated in a microwave oven at low power for 10 minutes in 10 mmol/L sodium citrate buffer (pH 6.0). Endogenous peroxidase was inactivated using 3% hydrogen peroxide (H2O2) in methanol for 20 minutes. The sections were blocked with protein block agent for 20 minutes. The sections were incubated with rabbit antihuman CDA1 serum for 2 hour at room temperature. Biotinylated goat anti-rabbit immunogloblulin (DAKO A/S) was used as a second antibody, followed by avidin biotin horseradish peroxidase complex (ABC Elite kit, Victor Laboratories, Burlingame, Calif.). Detection was accomplished by reaction with 3,3′-diaminobenzidine tetrahydrochloride (DAB, Sigma Chemical Co., St Louis, Mo.) (Cao Z et al. The angiotensin type 2 receptor is expressed in adult rat kidney and promotes cellular proliferation and apoptosis. Kidney Int. 2000; 58:2437-2451.

CDA1 [2] = assay: CDA1 expression and fibrosis in the remnant kidney following subtotal nephrectomy (STNx); format: in vivo, rat; conditions: preliminary data
Procedure: Subtotal nephrectomy (STNx) were performed by right nephrectomy, followed by infarction of approximately two-thirds of the left kidney with selective ligation of all but one extrarenal branch of the left renal artery (CIA40). Anaesthesia was achieved by intraperitoneal injection of pentobarbitone sodium (60 mg/kg). Sham operated rats were used as controls. After operation, the animals were sacrificed at 1, 2, 4, 8 and 12 week and tissue collected for assessment of CDA1 expression and fibrotic growth factors as well as matrix proteins. CDA1 staining was performed using a rabbit antihuman CDA1 serum (Chai et al, 2001) in paraffin embedded sections. In brief, following dewaxing, paraffin embedded sections were treated in a microwave oven at low power for 10 minutes in 10 mmol/L sodium citrate buffer (pH 6.0). Endogenous peroxidase was inactivated using 3% hydrogen peroxide (H2O2) in methanol for 20 minutes. The sections were blocked with protein block agent for 20 minutes. The sections were incubated with rabbit antihuman CDA1 serum for 2 hour at room temperature. Biotinylated goat anti-rabbit immunogloblulin (DAKO A/S) was used as a second antibody, followed by avidin biotin horseradish peroxidase complex (ABC Elite kit, Victor Laboratories, Burlingame, Calif.). […]

CDA1 [3] = conditions: in vitro; reported by other workers; cited from earlier work

## CCCCC(=O)N(Cc1ccc(-c2ccccc2-c2nnn[nH]2)cc1)[C@H](C(=O)O)C(C)C [valsartan]
CDA1 [1]; treatment with AT1 receptor antagonist, data not shown
  Effect on increased CDA1 expression following Ang II infusion: prevented
CDA1 [2]
  Effect on cell injury in remnant kidney: less cell injury
CDA1 [2]; FIG. 3B
  Effect on CDA1 expression in remnant kidney: attenuation of CDA1 expression

## TGF β1: growth factor; CDA1 described as a TGF β1 target gene
CDA1 [3]
  CDA1 expression: increased

## angiotensin II (DRVYIHPF; Angiotensin-2; UniProt P01015 25-32, looked up) [Ang II, peptide hormone infused into rats by minipump to stimulate CDA1 expression]
CDA1 [1]; immunohistochemical staining, proximal tubules, subcutaneous minipump infusion in Sprague Dawley rats
  CDA1 expression after angiotensin II infusion: increased CDA1 expression
